Assay results from EPA's ToxValDB 9.5 (doi:10.2903/j.efsa.2009.204r).
≈ marks a conversion by molar mass, not a printed value.

Assays:
Daphnia magna = details: chronic/long-term; duration: 21 days; reproduction
Mus musculus = details: oral
Folsomia candida = details: chronic/long-term; duration: 28 days
Anas platyrhynchos = details: short-term; oral; feed; mortality
Apis mellifera = details: acute; duration: 48 hours; oral; unspecified; mortality
Cyprinus carpio = details: acute; duration: 96 hours; mortality
Oncorhynchus mykiss = details: chronic/long-term; duration: 28 days; growth
Typhlodromus pyri = test: LR50; higher = less toxic; details: acute; duration: 7 days; mortality

## CC(C)=NOCCOC(=O)[C@@H](C)Oc1ccc(Oc2cnc3cc(Cl)ccc3n2)cc1 [Propaquizafop]
Daphnia magna
  NOEC: 0.44 mg/L
Rattus norvegicus; reproduction developmental, reproduction
  NOAEL: 15 mg/kg-day
Rattus norvegicus; subchronic, duration: 90 days, oral
  NOAEL: 6.25 mg/kg-day
Mus musculus; acute, mortality
  LD50: 3010 mg/kg
Mus musculus; chronic, duration: 18 months, clinical chemistry
  NOAEL: 1.5 mg/kg-day
Folsomia candida
  NOEC: 5.4 mg/kg
Anas platyrhynchos
  LC50: > 827 mg/kg-day
Colinus virginianus; acute, oral, mortality
  LD50: > 2000 mg/kg
Colinus virginianus; reproduction developmental
  NOEC: ≥ 20.2 mg/kg-day
Tagia sp.; acute, mortality
  LC50: > 1000 mg/kg
Tagia sp.; chronic/long-term, duration: 56 days
  NOEC: 3.9 mg/kg
Apis mellifera
  LD50: > 20 µg/piece
Cyprinus carpio
  LC50: 0.19 µg/mL (≈ 0.428 µM)
Oncorhynchus mykiss
  NOEC: 0.019 mg/L
Typhlodromus pyri
  LR50: > 1.4 g/ha
